In patent US12240862B2, “Inhibitors of peptidylarginine deiminases” (Gilead Sciences, Inc., priority 2020, dated 2025) one finds IC50 data, which are given here for 20 compounds.

Each structure is given as a SMILES string.

T1 sequence (Q9UM07 2-663): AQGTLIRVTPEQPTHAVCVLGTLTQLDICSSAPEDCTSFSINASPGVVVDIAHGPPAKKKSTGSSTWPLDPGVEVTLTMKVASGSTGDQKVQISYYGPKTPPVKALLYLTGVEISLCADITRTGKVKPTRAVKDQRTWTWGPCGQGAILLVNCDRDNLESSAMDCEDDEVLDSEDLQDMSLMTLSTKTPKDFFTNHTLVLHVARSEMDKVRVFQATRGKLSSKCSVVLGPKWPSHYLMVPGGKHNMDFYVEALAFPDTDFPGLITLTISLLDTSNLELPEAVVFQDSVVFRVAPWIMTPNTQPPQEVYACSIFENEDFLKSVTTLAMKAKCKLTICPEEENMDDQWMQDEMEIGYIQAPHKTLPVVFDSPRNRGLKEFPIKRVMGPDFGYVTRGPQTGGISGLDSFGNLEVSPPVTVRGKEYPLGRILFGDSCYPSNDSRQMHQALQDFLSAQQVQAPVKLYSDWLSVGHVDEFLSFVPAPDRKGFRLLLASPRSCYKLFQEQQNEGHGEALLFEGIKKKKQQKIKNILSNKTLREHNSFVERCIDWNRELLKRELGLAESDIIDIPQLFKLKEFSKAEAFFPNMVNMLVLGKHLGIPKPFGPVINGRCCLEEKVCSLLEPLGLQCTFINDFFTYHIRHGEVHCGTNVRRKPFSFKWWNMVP

This assay addresses T1, human PAD4 (Homo sapiens, UniProt Q9UM07).
T1 construct: human PAD4 (NM_012387), A2P663, was PCR amplified; His-SUMO (N, cleaved yes); made in house; host or cells: E. coli BL21(DE3)
In words: In vitro PAD4 BAEE biochemical assay. Conditions: human PAD4, BAEE substrate; 5 nM PAD4, 2 mM calcium chloride, 3 mM BAEE; geometric mean of multiple experiments. The method, boiled down: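 Tag-free recombinant hPAD4 (5 nM), 2 mM CaCl2, 3 mM BAEE, 50 mM MOPS pH 7.6, 2 mM DTT; 30 min compound preincubation, 2 h reaction, all 25 °C. EDTA quench; ammonia read via o-phthalaldehyde amine coupling, 1 h.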
With `COc1cc(C(=O)N2[C@H]3CC[C@@H]2[C@H](N)C3)cc2nc(-c3cc4ccc([C@@H](C)NC(=O)c5c(F)cccc5F)nc4n3CC3CC3)c(C)n12` [Example 16, ~{N}-[(1~{R})-1-[2-[7-[(1~{R},2~{R},4~{S})-2-amino-7-azabicyclo [2.2.1]heptane-7-carbonyl]-5-methoxy-3-methylimidazo [1,2-a]pyridin-2-yl]-1-(cyclopropylmethyl)pyrrolo[2,3-b]pyridin-6-yl]ethyl]-2,6-difluorobenzamide], the IC50 is 114 nM.
In the case of `COc1cc(C(=O)N2[C@H]3CC[C@@H]2[C@H](N)C3)cc2nc(-c3cc4ccc([C@@H](C)NC(=O)C56CC(F)(C5)C6)nc4n3CC3CC3)c(C3CC3)n12` [Example 144, ~{N}-[(1~{R})-1-[2-[7-[(1~{R},2~{R},4~{S})-2-amino-7-azabicyclo[2.2.1]heptane-7-carbonyl]-3-cyclopropyl-5-methoxyimidazo[1,2-a]pyridin-2-yl]-1-(cyclopropylmethyl)pyrrolo [2,3-b]pyridin-6-yl]ethyl]-3-fluorobicyclo[1.1.1]pentane-1-carboxamide], the IC50 amounted to 130 nM.
Then `Cc1c(-c2cc3ccc(N(C(F)F)S(C)(=O)=O)nc3n2CC2CC2)nc2cc(C(=O)N3CCC[C@@H](N)C3)cc(C3CC3)n12` [Example 428, ~{N}-[2-[7-[(3~{R})-3-aminopiperidine-1-carbonyl]-5-cyclopropyl-3-methylimidazo [1,2-a]pyridin-2-yl]-1-(cyclopropylmethyl)pyrrolo [2,3-b]pyridin-6-yl]-~{N}-(difluoromethyl) methanesulfonamide], with 1020 nM; and `COc1cc(C(=O)N2[C@H]3CC[C@@H]2[C@H](N)C3)cc2nc(-c3cc4ccc([C@@H](C)NC(=O)N[C@@H](C)c5cccnc5)nc4n3CC3CC3)c(C3CC3)n12` [Example 217, 1-[(1~{R})-1-[2-[7-[(1~{R},2~{R},4~{S})-2-amino-7-azabicyclo[2.2.1]heptane-7-carbonyl]-3-cyclopropyl-5-methoxyimidazo [1,2-a]pyridin-2-yl]-1-(cyclopropylmethyl)pyrrolo [2,3-b]pyridin-6-yl]ethyl]-3-[(1~{S})-1-pyridin-3-ylethyl]urea], with 45.9 nM; and `COc1ccc(-c2ccc3cc(-c4nc5cc(C(=O)N6[C@H]7CC[C@@H]6[C@H](N)C7)cc(OC)n5c4C)n(CC4CC4)c3n2)c(C)n1` [Example 556, [(1~{R},2~{R},4~{S})-2-amino-7-azabicyclo [2.2.1]heptan-7-yl]-[2-[1-(cyclopropylmethyl)-6-(6-methoxy-2-methylpyridin-3-yl)pyrrolo[2,3-b]pyridin-2-yl]-5-methoxy-3-methylimidazo[1,2-a]pyridin-7-yl]methanone], with 296 nM.
Then `COc1cc(C(=O)N2[C@H]3CC[C@@H]2[C@H](N)C3)cc2nc(-c3cc4ccc(C5CCN(C(=O)C(C)(C)C)CC5)nc4n3CC3CC3)c(C)n12` [Example 526, 1-[4-[2-[7-[(1~{R},2~{R}, 4~{S})-2-amino-7-azabicyclo[2.2.1]heptane-7-carbonyl]-5-methoxy-3-methylimidazo[1,2-a]pyridin-2-yl]-1-(cyclopropylmethyl)pyrrolo [2,3-b]pyridin-6-yl]piperidin-1-yl]-2,2-dimethylpropan-1-one], with 458 nM.
Then `COc1cc(C(=O)N2[C@H]3CC[C@@H]2[C@H](N)C3)cc2nc(-c3cc4ccc([C@@H](C)NC(=O)N5CCOC[C@@H]5C(F)(F)F)nc4n3CC3CC3)c(C)n12` [Example 199, (3~{R})-~{N}-[(1~{R})-1-[2-[7-[(1~{R}, 2~{R},4~{S})-2-amino-7-azabicyclo[2.2.1]heptane-7-carbonyl]-5-methoxy-3-methylimidazo [1,2-a]pyridin-2-yl]-1-(cyclopropylmethyl)pyrrolo [2,3-b]pyridin-6-yl]ethyl]-3-(trifluoromethyl)morpholine-4-carboxamide], with 35.4 nM; and `COc1cc(C(=O)N2[C@H]3CC[C@@H]2[C@H](N)C3)cc2nc(-c3cc4ccc(N5[C@@H](C)CCCS5(=O)=O)nc4n3CC3CC3)c(C)n12` [Example 462, ((1R,2R,4S)-2-amino-7-azabicyclo[2.2.1]heptan-7-yl)(2-(1-(cyclopropylmethyl)-6-((S)-3-methyl-1,1-dioxido-1,2-thiazinan-2-yl)-1H-pyrrolo[2,3-b]pyridin-2-yl)-5-methoxy-3-methylimidazo[1,2-a]pyridin-7-yl)methanone], with 39.7 nM; and `COc1cc(C(=O)N(C)C2CCCNC2)cc2nc(-c3cc4ccc(N(C(F)F)S(C)(=O)=O)nc4n3CC3CC3)c(C)n12` (centres unmarked) [Example 328, 2-[1-(cyclopropylmethyl)-6-[difluoromethyl (methylsulfonyl)amino]pyrrolo[2,3-b]pyridin-2-yl]-5-methoxy-~{N}, 3-dimethyl-~{N}-piperidin-3-ylimidazo [1,2-a]pyridine-7-carboxamide], with 4880 nM.
For the compound `COc1cc(C(=O)N2C[C@H]3C[C@@]3(N)C2)cc2nc(-c3cc4ccc([C@@H](C)NC(=O)C56CC(F)(C5)C6)nc4n3CC3CC3)c(C)n12` [Example 24, ~{N}-[(1~{R})-1-[2-[7-[(1~{S},5~{R})-1-amino-3-azabicyclo [3.1.0]hexane-3-carbonyl]-5-methoxy-3-methylimidazo [1,2-a]pyridin-2-yl]-1-(cyclopropylmethyl)pyrrolo[2,3-b]pyridin-6-yl]ethyl]-3-fluorobicyclo[1.1.1] pentane-1-carboxamide], the IC50 amounted to 9010 nM.
In the case of `COc1cc(C(=O)N2[C@H]3CC[C@@H]2[C@H](N)C3)cc2nc(-c3cc4ccc(N5CCCC6(CC6)S5(=O)=O)nc4n3CC3CC3)c(C)n12` [Example 457, [(1~{R},2~{R},4~{S})-2-amino-7-azabicyclo [2.2.1]heptan-7-yl]-[2-[1-(cyclopropylmethyl)-6-(4,4-dioxo-4$l^6-thia-5-azaspiro[2.5]octan-5-yl)pyrrolo[2,3-b]pyridin-2-yl]-5-methoxy-3-methylimidazo[1,2-a]pyridin-7-yl]methanone] it was 52.2 nM.
Then `COc1cc(C(=O)N2CCC[C@@H](N)C2)cc2nc(-c3cc4ccc([C@@H](C)NC(=O)N5CCCC5)nc4n3CC3CC3)c(C)n12` [Example 252, ~{N}-[(1~{R})-1-[2-[7-[(3~{R})-3-aminopiperidine-1-carbonyl]-5-methoxy-3-methylimidazo [1,2-a]pyridin-2-yl]-1-(cyclopropylmethyl)pyrrolo [2,3-b]pyridin-6-yl]ethyl] pyrrolidine-1-carboxamide], with 98.1 nM; and `COc1cc(C(=O)N2CCC[C@@H](N)C2)cc2nc(-c3cc4ccc([C@@H](C)NCC(F)(F)F)nc4n3CC3CC3)c(C)n12` [Example 267, [(3~{R})-3-aminopiperidin-1-yl]-[2-[1-(cyclopropylmethyl)-6-[(1~{R})-1-(2,2,2-trifluoroethylamino)ethyl]pyrrolo[2,3-b]pyridin-2-yl]-5-methoxy-3-methylimidazo[1,2-a]pyridin-7-yl]methanone], with 521 nM.
Then `COc1cc(C(=O)N2CCC[C@@H](N)C2)cc2nc(-c3cc4ccc(C(C)C)nc4n3CC3CC3)c(C)n12` [Example 608, [(3~{R})-3-aminopiperidin-1-yl]-[2-[1-(cyclopropylmethyl)-6-propan-2-ylpyrrolo [2,3-b]pyridin-2-yl]-5-methoxy-3-methylimidazo [1,2-a]pyridin-7-yl] methanone], with 544 nM; and `COc1cc(C(=O)N2[C@H]3CC[C@@H]2[C@H](N)C3)cc2nc(-c3cc4ccc(C5CCN(C(=O)C(C)(C)C)C5)nc4n3CC3CC3)c(C)n12` (some centres unmarked) [Example 530, 1-[3-[2-[7-[(1~{R},2~{R}, 4~{S})-2-amino-7-azabicyclo[2.2.1]heptane-7-carbonyl]-5-methoxy-3-methylimidazo[1,2-a]pyridin-2-yl]-1-(cyclopropylmethyl)pyrrolo [2,3-b]pyridin-6-yl]pyrrolidin-1-yl]-2,2-dimethylpropan-1-one], with 274 nM.
In the case of `COc1cc(C(=O)N2CC[C@@H]3CCN[C@@H]3C2)cc2nc(-c3cc4ccc(N(C(F)F)S(C)(=O)=O)nc4n3CC3CC3)c(C)n12` [Example 419], the IC50 worked out at 1170 nM.
Then `COc1cc(C(=O)N2[C@H]3CC[C@@H]2[C@H](N)C3)cc2nc(-c3cc4ccc([C@@H](C)NC(=O)C5CCC5)nc4n3CC3CC3)c(C)n12` [Example 101], with 22.5 nM; and `COc1cc(C(=O)N[C@@H]2CCCCNC2)cc2nc(-c3cc4ccc(N(C(F)F)S(C)(=O)=O)nc4n3CC3CC3)c(C)n12` [Example 316, ~{N}-[(3~{R})-azepan-3-yl]-2-[1-(cyclopropylmethyl)-6-[difluoromethyl (methylsulfonyl)amino]pyrrolo[2,3-b]pyridin-2-yl]-5-methoxy-3-methylimidazo[1,2-a]pyridine-7-carboxamide], with 306 nM.
Then `COc1cc(C(=O)N2[C@H]3CC[C@@H]2[C@H](N)C3)cc2nc(-c3cc4ccc(N(C5CCC5)S(C)(=O)=O)nc4n3CC3CC3)c(C)n12` [Example 477, ~{N}-[2-[7-[(1~{R}, 2~{R},4~{S})-2-amino-7-azabicyclo[2.2.1]heptane-7-carbonyl]-5-methoxy-3-methylimidazo[1,2-a]pyridin-2-yl]-1-(cyclopropylmethyl)pyrrolo [2,3-b]pyridin-6-yl]-~{N}-cyclobutylmethane-sulfonamide], with 100 nM.
On to `COc1cc(C(=O)N2CCC[C@@H](N)C2)cc2nc(-c3cc4ccc(-c5cccc6c5CN(C)C6=O)nc4n3CC3CC3)c(C)n12` [Example 601, 4-[2-[7-[(3~{R})-3-aminopiperidine-1-carbonyl]-5-methoxy-3-methylimidazo[1,2-a]pyridin-2-yl]-1-(cyclopropylmethyl)pyrrolo[2,3-b]pyridin-6-yl]-2-methyl-3~{H}-isoindol-1-one], for which the IC50 was 6880 nM.
